Experimental data: patent US12336540B2, “Method for controlling weeds” (SUMITOMO CHEMICAL COMPANY, LIMITED, priority 2019, dated 2025)
Read-outs that look alike come from different tables or passages of the source.

Columns and labels:
[1] = tested on: Palmer amaranth, waterhemp, kochia, common ragweed or marestail; details: spot foliar treatment of 20% of pot area, 560 g/ha dicamba acid equivalence, 150 L/ha; soybean, corn or cotton seeded immediately after, grown 21 days; compared with plot without crop and plot with uniform blanket treatment at 560 g/ha
Protocol: (§1) The evaluation of the herbicidal efficacy is classified into 0 to 100, where the numeral “0” indicates no or little difference in the state of emergence or growth of weeds under test at the time of examination as compared with untreated weeds, and the numeral “100” indicates the complete death of weeds under test or the complete inhibition of emergence or growth of weeds under test.
A pot is filled with a soil, and then Palmer amaranth, waterhemp, kochia, common ragweed or marestail is seeded at a corner portion of the soil. […] Immediately thereafter, soybean (Genuity Roundup Ready 2 Xtend), corn (Genuity Roundup Ready 2), or cotton (Genuity Roundup Ready 2 Xtend) is seeded in a corner portion different from vegetation patches of weeds in the soil, and grown in the greenhouse for 21 days. This is defined as the invention plot.

[2] = tested on: Palmer amaranth, waterhemp, kochia, common ragweed or marestail; details: weeds and soybean, corn or cotton grown 14 days, spot foliar treatment of 20% of pot area, 560 g/ha dicamba acid equivalence, 150 L/ha, then grown 21 days; compared with plot without crop and plot with uniform blanket treatment at 560 g/ha
Protocol: as §1
A pot is filled with soil, and then Palmer amaranth, waterhemp, kochia, common ragweed, or marestail is seeded at a corner portion of the soil, and soybean (Genuity Roundup Ready 2 Xtend), corn (Genuity Roundup Ready 2), or cotton (Genuity Roundup Ready 2 Xtend) is seeded at another corner portion of the soil. […] Thereafter, the weeds and crops are grown in the greenhouse for 21 days. This is defined as the invention plot.

In the case of `CN(CCCN)CCCN.COc1c(Cl)ccc(Cl)c1C(=O)O` [dicamba-biproamine], the weed control effect [1] is reported as “excellent weed control effect” and the weed control effect [2] is reported as “excellent weed control effect”.
